Test results as given in US8962842B2, “2-pyridone antimicrobial compositions” (priority 2010, dated 2015).
Read-outs that look alike come from different tables or passages of the source.

How the values were obtained:
[1] = test system: Escherichia coli (6 strains); test: MIC range, broader panel of Quotient Bioresearch strains (Table 4); assay type: cell-based; conditions: for MIC50: read-out: MIC Range Median, Escherichia coli (6 strains)
[2] = test system: Klebsiella pneumonia (4 strains); test: as above; assay type: cell-based; conditions: Klebsiella pneumoniae; for MIC50: read-out: MIC Range Median, Klebsiella pneumonia (4 strains)
[3] = test system: Pseudomonas aeruginosa (12 strains); test: as above; assay type: cell-based; conditions: for MIC50: read-out: MIC Range Median, Pseudomonas aeruginosa (12 strains)
[4] = test system: Burkholderia cepacia (5 strains); test: as above; assay type: cell-based; conditions: for MIC50: read-out: MIC Range Median, Burkholderia cepacia (5 strains)
[5] = test system: Haemophilus influenza (5 strains); test: as above; assay type: cell-based, Haemophilus influenzae; conditions: for MIC50: 16 h, Median of the strain panel
[6] = test system: Acinetobacter baumannii (12 strains); test: as above; assay type: cell-based; conditions: for MIC50: read-out: MIC Range Median, Acinetobacter baumannii (12 strains)
[7] = test system: Staphylococcus aureus (16 strains); test: MIC range, broader panel of Quotient Bioresearch strains (Table 3); conditions: for MIC50: read-out: MIC Range Median, Staphylococcus aureus (16 strains)
[8] = test system: Enterococcus faecalis (5 strains); test: as above; conditions: for MIC50: read-out: MIC Range Median, Enterococcus faecalis (5 strains)
[9] = test system: Enterococcus faecium (3 strains); test: as above; conditions: for MIC50: read-out: MIC Range Median, Enterococcus faecium (3 strains)
[10] = test system: Streptococcus pneumonia (5 strains); test: as above; conditions: Streptococcus pneumoniae; for MIC50: read-out: MIC Range Median, Streptococcus pneumonia (5 strains)
[11] = test system: Streptococcus pyogenes (4 strains); test: as above; conditions: for MIC50: read-out: MIC Range Median, Streptococcus pyogenes (4 strains)
[12] = test system: Group C Streptococcus (4 strains); test: as above; conditions: for MIC50: read-out: MIC Range Median, Group C Streptococcus (4 strains)
[13] = read-out: MIC Range High, Escherichia coli (6 strains)
[14] = read-out: MIC Range Low, Escherichia coli (6 strains)
[15] = read-out: MIC Range High, Klebsiella pneumonia (4 strains)
[16] = read-out: MIC Range Low, Klebsiella pneumonia (4 strains)
[17] = read-out: MIC Range High, Pseudomonas aeruginosa (12 strains)
[18] = read-out: MIC Range Low, Pseudomonas aeruginosa (12 strains)
[19] = read-out: MIC Range High, Burkholderia cepacia (5 strains)
[20] = read-out: MIC Range Low, Burkholderia cepacia (5 strains)
[21] = High of the strain panel, read-out: MIC Range High, Haemophilus influenza (5 strains)
[22] = Low of the strain panel, read-out: MIC Range Low, Haemophilus influenza (5 strains)
[23] = read-out: MIC Range High, Acinetobacter baumannii (12 strains)
[24] = read-out: MIC Range Low, Acinetobacter baumannii (12 strains)
[25] = read-out: MIC Range High, Staphylococcus aureus (16 strains)
[26] = read-out: MIC Range Low, Staphylococcus aureus (16 strains)
[27] = read-out: MIC Range High, Enterococcus faecalis (5 strains)
[28] = read-out: MIC Range Low, Enterococcus faecalis (5 strains)
[29] = read-out: MIC Range High, Enterococcus faecium (3 strains)
[30] = read-out: MIC Range Low, Enterococcus faecium (3 strains)
[31] = read-out: MIC Range High, Streptococcus pneumonia (5 strains)
[32] = read-out: MIC Range Low, Streptococcus pneumonia (5 strains)
[33] = read-out: MIC Range High, Streptococcus pyogenes (4 strains)
[34] = read-out: MIC Range Low, Streptococcus pyogenes (4 strains)
[35] = read-out: MIC Range High, Group C Streptococcus (4 strains)
[36] = read-out: MIC Range Low, Group C Streptococcus (4 strains)

SMILES | MIC [1, 13] [µg/mL] | MIC [1, 14] [µg/mL] | MIC50 [1] [µg/mL] | MIC [2, 15] [µg/mL] | MIC [2, 16] [µg/mL] | MIC50 [2] [µg/mL] | MIC [3, 17] [µg/mL] | MIC50 [3] [µg/mL] | MIC [4, 19] [µg/mL] | MIC [4, 20] [µg/mL] | MIC50 [4] [µg/mL] | MIC50 [5] [µg/mL] | MIC [5, 21] [µg/mL] | MIC [5, 22] [µg/mL] | MIC [6, 23] [µg/mL] | MIC [6, 24] [µg/mL] | MIC50 [6] [µg/mL] | MIC [7, 25] [µg/mL] | MIC [7, 26] [µg/mL] | MIC50 [7] [µg/mL] | other results
Cc1c(-c2ccc(N)c(F)c2)c(F)cn2c(=O)c(C(=O)[O-])cc(C3CC3)c12.[K+] [Example 1 K salt, potassium 8-(4-amino-3-fluoro-phenyl)-1-cyclopropyl-7-fluoro-9-methyl-4-oxo-4H-quinolizine-3-carboxylate] | > 32 | 0.06 | > 32 | > 32 | 0.5 | 16 | 32 | 16 | 2 | 0.5 | 1 | ≤ 0.015 | 0.03 | ≤ 0.015 | > 32 | 0.25 | 20 | 0.5 | ≤ 0.015 | 0.5 | MIC [3, 18]: 2 µg/mL; MIC [8, 27]: 4 µg/mL; MIC [8, 28]: 0.12 µg/mL; MIC50 [8]: 0.12 µg/mL; MIC [9, 29]: 8 µg/mL; MIC [9, 30]: 1 µg/mL; MIC50 [9]: 2 µg/mL; MIC [10, 31]: 0.5 µg/mL; MIC [10, 32]: 0.5 µg/mL; MIC50 [10]: 0.5 µg/mL; MIC [11, 33]: 1 µg/mL; MIC [11, 34]: 0.5 µg/mL; MIC50 [11]: 0.5 µg/mL; MIC [12, 35]: 0.5 µg/mL; MIC [12, 36]: 0.12 µg/mL; MIC50 [12]: 0.25 µg/mL
Cc1c(-c2ccc(N)cc2)c(F)cn2c(=O)c(C(=O)[O-])cc(C3CC3)c12.[K+] [Example 5 K salt, potassium 8-(4-amino-phenyl)-1-cyclopropyl-7-fluoro-9-methyl-4-oxo-4H-quinolizine-3-carboxylate] | 16 | 0.03 | 8 | 16 | 0.12 | 10 | 16 | 4 | 0.5 | 0.12 | 0.25 | ≤ 0.015 | ≤ 0.015 | ≤ 0.015 | 16 | 0.06 | 6 | 0.25 | ≤ 0.015 | 0.12 | MIC [3, 18]: 1 µg/mL; MIC [8, 27]: 1 µg/mL; MIC [8, 28]: 0.03 µg/mL; MIC50 [8]: 0.06 µg/mL; MIC [9, 29]: 4 µg/mL; MIC [9, 30]: 0.25 µg/mL; MIC50 [9]: 1 µg/mL; MIC [10, 31]: 0.25 µg/mL; MIC [10, 32]: 0.12 µg/mL; MIC50 [10]: 0.12 µg/mL; MIC [11, 33]: 0.5 µg/mL; MIC [11, 34]: 0.12 µg/mL; MIC50 [11]: 0.12 µg/mL; MIC [12, 35]: 0.12 µg/mL; MIC [12, 36]: 0.06 µg/mL; MIC50 [12]: 0.06 µg/mL
Cc1c(-c2ccc(C(N)=O)cc2)c(F)cn2c(=O)c(C(=O)[O-])cc(C3CC3)c12.[K+] [Example 6 K salt, potassium 8-(4-carbamoyl-phenyl)-1-cyclopropyl-7-fluoro-9-methyl-4-oxo-4H-quinolizine-3-carboxylate] | > 32 | 0.25 | > 32 | > 32 | 1 | > 32 | > 32 | > 32 | 4 | 1 | 2 | 0.03 | 0.06 | 0.03 | > 32 | 1 | > 32 | 1 | 0.03 | 0.5 | MIC [3, 18]: 8 µg/mL; MIC [8, 27]: 4 µg/mL; MIC [8, 28]: 0.12 µg/mL; MIC50 [8]: 0.25 µg/mL; MIC [9, 29]: 8 µg/mL; MIC [9, 30]: 1 µg/mL; MIC50 [9]: 2 µg/mL; MIC [10, 31]: 0.25 µg/mL; MIC [10, 32]: 0.25 µg/mL; MIC50 [10]: 0.25 µg/mL; MIC [11, 33]: 0.25 µg/mL; MIC [11, 34]: 0.12 µg/mL; MIC50 [11]: 0.12 µg/mL; MIC [12, 35]: 0.12 µg/mL; MIC [12, 36]: 0.06 µg/mL; MIC50 [12]: 0.12 µg/mL
Cc1c(-c2ccncc2)ccn2c(=O)c(C(=O)[O-])cc(C3CC3)c12.[K+] [Example 16 K salt, potassium 1-cyclopropyl-9-methyl-4-oxo-8-(pyridin-4-yl)-4H-quinolizine-3-carboxylate] | > 32 | 0.03 | > 32 | > 32 | 0.12 | 16 | > 32 | 16 | 0.5 | 0.25 | 0.25 | ≤ 0.015 | ≤ 0.015 | ≤ 0.015 | > 32 | 0.12 | 16 | 1 | ≤ 0.015 | 1 | MIC [3, 18]: 2 µg/mL; MIC [8, 27]: 8 µg/mL; MIC [8, 28]: 0.25 µg/mL; MIC50 [8]: 0.25 µg/mL; MIC [9, 29]: 16 µg/mL; MIC [9, 30]: 1 µg/mL; MIC50 [9]: 8 µg/mL; MIC [10, 31]: 1 µg/mL; MIC [10, 32]: 0.5 µg/mL; MIC50 [10]: 0.5 µg/mL; MIC [11, 33]: 1 µg/mL; MIC [11, 34]: 0.25 µg/mL; MIC50 [11]: 0.375 µg/mL; MIC [12, 35]: 0.5 µg/mL; MIC [12, 36]: 0.25 µg/mL; MIC50 [12]: 0.25 µg/mL
Cc1c(-c2ccc(CN)cc2)ccn2c(=O)c(C(=O)[O-])cc(C3CC3)c12.[K+] [Example 31 K salt, potassium 8-(4-(amino-methyl)-phenyl)-1-cyclopropyl-9-methyl-4-oxo-4H-quinolizine-3-carboxylate] | 32 | ≤ 0.015 | 8 | 32 | 0.03 | 9 | > 32 | 8 | 1 | 0.12 | 0.5 | ≤ 0.015 | ≤ 0.015 | ≤ 0.015 | > 32 | 0.03 | 8 | 2 | ≤ 0.015 | 0.5 | MIC [8, 27]: 4 µg/mL; MIC [8, 28]: 0.06 µg/mL; MIC50 [8]: 0.12 µg/mL; MIC [9, 29]: 8 µg/mL; MIC [9, 30]: 0.5 µg/mL; MIC50 [9]: 4 µg/mL; MIC [10, 31]: 0.25 µg/mL; MIC [10, 32]: 0.06 µg/mL; MIC50 [10]: 0.12 µg/mL; MIC [11, 33]: 0.25 µg/mL; MIC [11, 34]: 0.06 µg/mL; MIC50 [11]: 0.09 µg/mL; MIC [12, 35]: 0.12 µg/mL; MIC [12, 36]: 0.06 µg/mL; MIC50 [12]: 0.09 µg/mL
Cc1c(-c2cc(F)c(N)c(F)c2)ccn2c(=O)c(C(=O)[O-])cc(C3CC3)c12.[K+] [Example 39 K salt, potassium 8-(4-amino-3,5-difluoro-phenyl)-1-cyclopropyl-9-methyl-4-oxo-4H-quinolizine-3-carboxylate] | 16 | ≤ 0.015 | 12 | 32 | 0.12 | 9 | 16 | 4 | 0.5 | 0.06 | 0.25 | ≤ 0.015 | ≤ 0.015 | ≤ 0.015 | 16 | 0.06 | 4 | 0.12 | ≤ 0.015 | 0.06 | MIC [3, 18]: 0.5 µg/mL; MIC [8, 27]: 0.5 µg/mL; MIC [8, 28]: ≤ 0.015 µg/mL; MIC50 [8]: 0.03 µg/mL; MIC [9, 29]: 1 µg/mL; MIC [9, 30]: 0.12 µg/mL; MIC50 [9]: 0.5 µg/mL; MIC [10, 31]: 0.25 µg/mL; MIC [10, 32]: 0.12 µg/mL; MIC50 [10]: 0.12 µg/mL; MIC [11, 33]: 0.25 µg/mL; MIC [11, 34]: 0.06 µg/mL; MIC50 [11]: 0.12 µg/mL; MIC [12, 35]: 0.12 µg/mL; MIC [12, 36]: 0.03 µg/mL; MIC50 [12]: 0.09 µg/mL
